Measurements published in ChEMBL document CHEMBL1126121, “Non-prostanoid thromboxane A2 receptor antagonists with a dibenzoxepin ring system. 1” (J Med Chem, 1992).

Tests used:
[1] = molecular target: T1, Thromboxane A2 receptor (Homo sapiens) (UniProt P21731); assay: Binding affinity for thromboxane A2 receptor by measuring its ability to displace [3H]U-46619 from guinea pig platelets at 0.1 uM; settings: Cavia porcellus, target entry is the homologue from another species
T1 sequence (whole entry): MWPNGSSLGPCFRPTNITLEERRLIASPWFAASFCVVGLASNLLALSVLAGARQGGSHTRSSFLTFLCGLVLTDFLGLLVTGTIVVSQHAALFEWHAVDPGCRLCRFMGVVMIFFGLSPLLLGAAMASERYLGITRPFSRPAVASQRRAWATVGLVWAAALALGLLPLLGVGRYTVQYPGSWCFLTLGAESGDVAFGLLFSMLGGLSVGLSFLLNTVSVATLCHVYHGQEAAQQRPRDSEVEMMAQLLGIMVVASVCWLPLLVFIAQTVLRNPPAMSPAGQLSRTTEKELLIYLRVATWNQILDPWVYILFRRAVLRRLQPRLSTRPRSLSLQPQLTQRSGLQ

[2] = molecular target: T1, Thromboxane A2 receptor (Homo sapiens); assay: Binding affinity for thromboxane A2 receptor by measuring ability to displace [3H]U-46619 from guinea pig platelets at 1 uM; settings: Cavia porcellus, target entry is the homologue from another species
[3] = molecular target: T2, Thromboxane-A synthase (Homo sapiens) (UniProt P24557); assay: Inhibitory activity against thromboxane A2 synthase obtained from bovine platelet microsomes at 10 uM; settings: Bos taurus, target entry is the homologue from another species
T2 sequence (whole entry): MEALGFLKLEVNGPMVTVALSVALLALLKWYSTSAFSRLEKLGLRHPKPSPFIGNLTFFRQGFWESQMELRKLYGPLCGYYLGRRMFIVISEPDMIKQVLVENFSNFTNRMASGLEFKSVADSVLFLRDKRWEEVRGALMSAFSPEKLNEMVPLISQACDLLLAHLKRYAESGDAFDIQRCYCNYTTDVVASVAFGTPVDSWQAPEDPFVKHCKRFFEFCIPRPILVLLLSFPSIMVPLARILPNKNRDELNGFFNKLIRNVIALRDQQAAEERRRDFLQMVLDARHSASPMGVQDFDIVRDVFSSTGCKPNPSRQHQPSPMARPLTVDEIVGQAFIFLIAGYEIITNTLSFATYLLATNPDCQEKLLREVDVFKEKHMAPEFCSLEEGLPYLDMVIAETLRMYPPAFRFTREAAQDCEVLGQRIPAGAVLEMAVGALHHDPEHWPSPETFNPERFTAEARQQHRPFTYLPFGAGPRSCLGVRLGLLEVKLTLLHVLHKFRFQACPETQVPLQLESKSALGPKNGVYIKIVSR

[4] = molecular target: T1, Thromboxane A2 receptor (Homo sapiens); assay: Inhibitory effect against binding thromboxane A2 receptor on guinea pig platelets using [3H]U-46619 as radioligand at 1 uM concentration; settings: Cavia porcellus, target entry is the homologue from another species
[5] = system: Thromboxane-A synthase (Bos taurus); assay: Inhibitory effect against thromboxane A2 synthase from bovine platelets at 10 uM concentration
Cavia porcellus [6] = assay: Compound was tested ex vivo for it''s inhibition of U-46619 induced platelet aggregation in the guinea pig after 2 hr of administration at dose 10 mg/kg; type: functional
Cavia porcellus [7] = assay: Inhibitory effect of the compounds on U-46619-induced platelet aggregation ex vivo in guinea pig at the dose of 10 mg/kg 2 hr after oral administration; type: functional
Cavia porcellus [8] = assay: Compound was tested ex vivo for it''s inhibition of U-46619 induced platelet aggregation in the guinea pig after 4 hr of administration at dose 10 mg/kg; type: functional
Cavia porcellus [9] = assay: Compound was tested ex vivo for it's inhibition of U-46619 induced platelet aggregation in the guinea pig after 2 hr of administration at dose 10 mg/kg; type: functional
Cavia porcellus [10] = assay: Inhibitory effect of the compounds on U-46619-induced platelet aggregation ex vivo in guinea pig at the dose of 10 mg/kg 4 hr after oral administration; type: functional
Cavia porcellus [11] = assay: Inhibitory effect of the compounds on U-46619-induced platelet aggregation ex vivo in guinea pig at the dose of 10 mg/kg 7 hr oral after administration; type: functional

Structure (SMILES)	inhibition [1] [%]	inhibition [2] [%]	inhibition [3] [%]	inhibition [4] [%]	inhibition [5] [%]	Aggregation (Cavia porcellus [6]) [%]	Platelet aggregation (Cavia porcellus [7]) [%]	Aggregation (Cavia porcellus [8]) [%]	Aggregation (Cavia porcellus [9]) [%]	Platelet aggregation (Cavia porcellus [10]) [%]	Platelet aggregation (Cavia porcellus [11]) [%]
O=C(O)c1ccc2c(c1)C(SCCNS(=O)(=O)c1ccccc1)c1ccccc1C=C2 (stereo unspecified)	67	97	74	97	74						
COc1ccc(S(=O)(=O)NCCSC2c3ccccc3COc3ccc(C(=O)O)cc32)cc1OC (stereo unspecified)	49	91	70	91	70						
O=C(O)c1ccc2c(c1)C(SCCNS(=O)(=O)c1ccccc1[N+](=O)[O-])c1ccccc1CO2 (stereo unspecified)	72	99	72	99	79						
O=C(O)c1ccc2c(c1)C(SCCNS(=O)(=O)c1ccc(Cl)cc1)c1ccccc1CO2 (stereo unspecified)	64	94	79	94	79						
CN(CCSC1c2ccccc2COc2ccc(C(=O)O)cc21)S(=O)(=O)c1ccccc1 (stereo unspecified)	73	92		92							
COc1ccc(S(=O)(=O)NCCSC2c3ccccc3COc3ccc(C(=O)O)cc32)cc1 (stereo unspecified)	83	93	75	93	75						
O=C(O)c1ccc2c(c1)C(SCCNS(=O)(=O)c1ccccc1)c1ccccc1OC2 (stereo unspecified)	21	64	53	64	53						
O=C(NCCSC1c2ccccc2COc2ccc(C(=O)O)cc21)Nc1ccccc1 (stereo unspecified)	67	98	58	98	58						
Cc1ccc2c(c1)C(SCCNS(=O)(=O)c1ccccc1)c1ccccc1CO2 (stereo unspecified)	1	27	-10	27	-10						
O=C(O)c1ccc2c(c1)C(SCCNC(=O)c1ccccc1)c1ccccc1CO2 (stereo unspecified)	69	92	63	92	63	68.3	68.3				
COc1cccc(OC)c1C(=O)NCCSC1c2ccccc2COc2ccc(C(=O)O)cc21 (stereo unspecified)	20	72		72							
O=C(O)c1ccc2c(c1)C(SCC/N=C(\S)NCc1ccccc1)c1ccccc1CO2 (stereo unspecified)	80	96	92	96	92		61.7	61.7			
O=C(O)c1ccc2c(c1)C(SCCNS(=O)(=O)c1ccccc1)c1cc(Br)ccc1CO2 (stereo unspecified)	75	94	6	94	6		41		41		
Cc1ccsc1C(=O)NCCSC1c2ccccc2COc2ccc(C(=O)O)cc21 (stereo unspecified)	81	94	79	94	79						
CCCCCC(=O)NCCSC1c2ccccc2COc2ccc(C(=O)O)cc21 (stereo unspecified)	51	88	4	88	4						
O=C(O)c1ccc2c(c1)C(SCCNS(=O)(=O)c1ccccc1)c1ccccc1CS2 (stereo unspecified)	94	99		99		0	0	0		0	
O=C(O)c1ccc2c(c1)C(SCCNS(=O)(=O)c1cccnc1)c1ccccc1CO2 (stereo unspecified)	67	93		93							
O=C(O)c1ccc2c(c1)OCc1ccccc1C2SCCNS(=O)(=O)c1ccccc1 (stereo unspecified)	-3	36	96	36	96						

Structure (SMILES)	inhibition [1] [%]	inhibition [2] [%]	inhibition [3] [%]	inhibition [4] [%]	inhibition [5] [%]	Aggregation (Cavia porcellus [6]) [%]	Platelet aggregation (Cavia porcellus [7]) [%]	Aggregation (Cavia porcellus [8]) [%]	Aggregation (Cavia porcellus [9]) [%]	Platelet aggregation (Cavia porcellus [10]) [%]	Platelet aggregation (Cavia porcellus [11]) [%]
O=C(O)c1ccc2c(c1)C(SCCNS(=O)(=O)c1ccc(F)cc1)c1ccccc1CO2 (stereo unspecified)	61	93	33	93	33						
COc1ccc(C(=O)NCCSC2c3ccccc3COc3ccc(C(=O)O)cc32)c(OC)c1OC (stereo unspecified)	82	97		97							
Cc1ccc(S(=O)(=O)NCCSC2c3ccccc3COc3ccc(C(=O)O)cc32)cc1 (stereo unspecified)	76	93	77	93	77						
O=C(O)Cc1ccc2c(c1)C(SCCNS(=O)(=O)c1ccccc1)c1ccccc1CO2 (stereo unspecified)	30	84	13								
O=C(O)c1ccc2c(c1)C(SCCNS(=O)(=O)c1cccc([N+](=O)[O-])c1)c1ccccc1CO2 (stereo unspecified)	83	93	54	93	54						
COc1ccc(OC)c(S(=O)(=O)NCCSC2c3ccccc3COc3ccc(C(=O)O)cc32)c1 (stereo unspecified)	66	92	62	92	62						
O=C(O)c1ccc2c(c1)C(SCCNS(=O)(=O)c1ccc(C(F)(F)F)cc1)c1ccccc1CO2 (stereo unspecified)	70	92	-9	92	-9						
O=C(O)c1ccc2c(c1)C(SCCNS(=O)(=O)/C=C/c1ccccc1)c1ccccc1CO2 (single isomer, unassigned; (+))							0			2.3	10.7
O=C(O)c1ccc2c(c1)C(SCCNC(=O)c1ccccc1O)c1ccccc1CO2 (stereo unspecified)	90	99	53	99	53	64.5	64.5				
O=C(O)c1ccc2c(c1)C(SCCNS(=O)(=O)c1ccc([N+](=O)[O-])cc1)c1ccccc1CO2 (stereo unspecified)	58	90	41	90	41						
O=C(O)c1cccc(C(SCCNS(=O)(=O)c2ccccc2)c2ccccc2)c1 (stereo unspecified)	41	85	19	85	19						
O=C(NCCSC1c2ccccc2COc2ccc(C(=O)O)cc21)NCc1ccccc1 (stereo unspecified)	47	87	41	87	41						
O=C(O)c1ccc2c(c1)C(SCCNS(=O)(=O)c1cccc3cccnc13)c1ccccc1CO2 (stereo unspecified)	44	90	63	90	63						
COc1ccccc1C(=O)NCCSC1c2ccccc2COc2ccc(C(=O)O)cc21 (stereo unspecified)	86	97		97							
COc1cc(C(=O)NCCSC2c3ccccc3COc3ccc(C(=O)O)cc32)cc(OC)c1OC (stereo unspecified)	50	87	92	87	92						
O=C(O)c1ccc2c(c1)C(SCCNC(=O)C1CCCCC1)c1ccccc1CO2 (stereo unspecified)	20	66	19	66	19						
O=C(O)c1ccc2c(c1)C(SCCNS(=O)(=O)c1ccccc1)c1ccccc1CC2 (stereo unspecified)	71	95	68	95	68						
